{"source": "patent US20190093170A1", "about": "“USE OF TRANSLATIONAL PROFILING TO IDENTIFY TARGET MOLECULES FOR THERAPEUTIC TREATMENT” (THE REGENTS OF THE UNIVERSITY OF CALIFORNIA, priority 2013, published 2019)", "tested_on": "PC3 human prostate cancer cells", "assay": "RNA-seq mRNA abundance (part of ribosome profiling experiment);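 also: average poly(A) RNA-seq read density per codon over the coding sequence, excluding 15 initial and 5 final codons, mapped to hg19 transcripts, taken as mRNA abundance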", "format": "cell-based", "settings": "for Rapamycin mRNA: 3-hour treatment with rapamycin (50 nM) in PC3 cells", "description": "Cells were subsequently treated with cycloheximide (100 μg ml^−1; Sigma) and detergent lysis was performed in the dish. The lysate was treated with DNase and clarified, and a sample was taken for RNA-seq analysis. Lysates were subjected to ribosome footprinting by nuclease treatment. Ribosome-protected fragments were purified, and deep sequencing libraries were generated from these fragments, as well as from poly(A) mRNA purified from non-nuclease-treated lysates. These libraries were analyzed by sequencing on an Illumina GAII.\nRibosome footprint and RNA-seq sequencing reads were aligned against a library of transcripts from the UCSC Known Genes database GRCh37/hg19. The first 25 nucleotides of each read were aligned using Bowtie and this initial alignment was then extended to encompass the full fragment-derived portion of the sequencing read while excluding the linker sequence. Read density profiles were then constructed for the canonical transcript of each gene, using only reads with 0 or 1 total mismatches between the read sequence and the reference sequence, comprised of the transcript fragment followed by the linker sequence. Footprint reads were assigned to an A site nucleotide at position +15 to +17 of the alignment, based on the total fragment length; mRNA reads were assigned to the first nucleotide of the alignment. The average read density per codon was then computed for the coding sequence of each transcript, excluding the first 15 and last 5 codons, which can display atypical ribosome accumulation.\nAverage read density was used as a measure of mRNA abundance (RNA-seq reads) and of protein synthesis (ribosome profiling reads). For most analyses, genes were filtered to require at least 256 reads in the relevant RNA-seq samples. Translational efficiency was computed as the ratio of ribosome footprint read density to RNA-seq read density, scaled to normalize the translational efficiency of the median gene to 1.0 after excluding regulated genes (log 2 fold-change+1.5 after normalizing for the all-gene median). Changes in protein synthesis, mRNA abundance and translational efficiency were similarly computed as the ratio of read densities between different samples, normalized to give the median gene a ratio of 1.0. This normalization corrects for differences in the absolute number of sequencing reads obtained for different libraries."}
{"molecule": "CO[C@H]1C[C@@H]2CC[C@@H](C)[C@@](O)(O2)C(=O)C(=O)N2CCCC[C@H]2C(=O)O[C@H]([C@H](C)C[C@@H]2CC[C@@H](O)[C@H](OC)C2)CC(=O)[C@H](C)/C=C(\\C)[C@@H](O)[C@@H](OC)C(=O)[C@H](C)C[C@H](C)/C=C/C=C/C=C/1C", "note": "[Rapamycin, rapamycin]", "values": [{"measurement": "Rapamycin mRNA", "setting": "gene ACD", "result": "−0.96"}, {"measurement": "mRNA", "setting": "gene ACTG1", "result": 0.02}, {"measurement": "mRNA", "setting": "gene AGRN", "result": 0.01}, {"measurement": "mRNA", "setting": "gene ALKBH7", "result": 0.06}, {"measurement": "mRNA", "setting": "gene AP2A1", "result": 0.09}, {"measurement": "mRNA", "setting": "gene ARD1A", "result": "−0.04"}, {"measurement": "mRNA", "setting": "gene ATP5G2", "result": 0.29}, {"measurement": "Rapamycin mRNA", "setting": "gene C17orf28", "result": "−0.44"}, {"measurement": "mRNA", "setting": "gene C21orf66", "result": "−0.30"}, {"measurement": "Rapamycin mRNA", "setting": "gene CCNA1", "result": "−0.51"}, {"measurement": "mRNA", "setting": "gene CCNI", "result": 0.29}, {"measurement": "mRNA", "setting": "gene CD44", "result": 0.34}, {"measurement": "mRNA", "setting": "gene CIRBP", "result": 0.14}, {"measurement": "mRNA", "setting": "gene CLPTM1", "result": 0.07}, {"measurement": "mRNA", "setting": "gene COL6A2", "result": "−0.08"}, {"measurement": "mRNA", "setting": "gene CRTAP", "result": 0.29}, {"measurement": "Rapamycin mRNA", "setting": "gene DDX51", "result": "−0.24"}, {"measurement": "Rapamycin mRNA", "setting": "gene DGCR2", "result": "−0.66"}, {"measurement": "mRNA", "setting": "gene ECSIT", "result": "−0.04"}, {"measurement": "Rapamycin mRNA", "setting": "gene EEF1A1", "result": 0.46}, {"measurement": "mRNA", "setting": "gene EEF1A2", "result": 0.03}, {"measurement": "mRNA", "setting": "gene EEF1D", "result": 0.18}, {"measurement": "mRNA", "setting": "gene EEF1G", "result": 0.21}, {"measurement": "mRNA", "setting": "gene EEF2", "result": 0.39}, {"measurement": "mRNA", "setting": "gene EIF3H", "result": 0.16}, {"measurement": "mRNA", "setting": "gene EIF3L", "result": 0.28}, {"measurement": "mRNA", "setting": "gene EIF4B", "result": 0.55}, {"measurement": "mRNA", "setting": "gene EVPL", "result": "−0.08"}, {"measurement": "mRNA", "setting": "gene FAM83H", "result": "−0.17"}, {"measurement": "mRNA", "setting": "gene FAM128B", "result": 0.06}, {"measurement": "mRNA", "setting": "gene FASN", "result": "−0.37"}, {"measurement": "mRNA", "setting": "gene GLTSCR2", "result": 0.31}, {"measurement": "mRNA", "setting": "gene GNB2L1", "result": 0.19}, {"measurement": "Rapamycin mRNA", "setting": "gene GTPBP3", "result": "−0.73"}, {"measurement": "mRNA", "setting": "gene HNRNPA1", "result": 0.18}, {"measurement": "mRNA", "setting": "gene HSPA8", "result": "−0.21"}, {"measurement": "mRNA", "setting": "gene IMPDH2", "result": 0.11}, {"measurement": "mRNA", "setting": "gene LAMA5", "result": "−0.32"}, {"measurement": "mRNA", "setting": "gene LMF2", "result": 0.22}, {"measurement": "Rapamycin mRNA", "setting": "gene MAPK6", "result": 0.13}, {"measurement": "Rapamycin mRNA", "setting": "gene MAPKAPK2", "result": "−0.21"}, {"measurement": "mRNA", "setting": "gene MTA1", "result": 0.00}, {"measurement": "mRNA", "setting": "gene NCLN", "result": "−0.05"}, {"measurement": "Rapamycin mRNA", "setting": "gene NFATC21P", "result": "−0.16"}, {"measurement": "Rapamycin mRNA", "setting": "gene NR2F1", "result": 0.05}, {"measurement": "mRNA", "setting": "gene PABPC1", "result": 0.35}, {"measurement": "mRNA", "setting": "gene PABPC4", "result": 0.24}, {"measurement": "mRNA", "setting": "gene PACS1", "result": 0.07}, {"measurement": "mRNA", "setting": "gene PFDN5", "result": 0.11}, {"measurement": "mRNA", "setting": "gene PGLS", "result": 0.03}, {"measurement": "mRNA", "setting": "gene PGM1", "result": 0.40}, {"measurement": "mRNA", "setting": "gene PNKP", "result": "−0.24"}, {"measurement": "Rapamycin mRNA", "setting": "gene PRKD3", "result": "−0.22"}, {"measurement": "mRNA", "setting": "gene PTGES2", "result": "−0.19"}, {"measurement": "mRNA", "setting": "gene RABGGTB", "result": "−0.20"}, {"measurement": "mRNA", "setting": "gene RPL3", "result": 0.18}, {"measurement": "mRNA", "setting": "gene RPL4", "result": 0.22}, {"measurement": "mRNA", "setting": "gene RPL7", "result": 0.15}, {"measurement": "mRNA", "setting": "gene RPL7A", "result": 0.17}, {"measurement": "mRNA", "setting": "gene RPL9", "result": 0.16}, {"measurement": "mRNA", "setting": "gene RPL10", "result": 0.09}, {"measurement": "mRNA", "setting": "gene RPL10A", "result": 0.16}, {"measurement": "mRNA", "setting": "gene RPL11", "result": 0.09}, {"measurement": "mRNA", "setting": "gene RPL12", "result": 0.07}, {"measurement": "mRNA", "setting": "gene RPL13", "result": 0.14}, {"measurement": "mRNA", "setting": "gene RPL13A", "result": 0.15}, {"measurement": "mRNA", "setting": "gene RPL15", "result": 0.11}, {"measurement": "mRNA", "setting": "gene RPL18A", "result": 0.17}, {"measurement": "mRNA", "setting": "gene RPL19", "result": 0.14}, {"measurement": "mRNA", "setting": "gene RPL21", "result": 0.14}, {"measurement": "mRNA", "setting": "gene RPL22", "result": 0.08}, {"measurement": "mRNA", "setting": "gene RPL24", "result": 0.11}, {"measurement": "mRNA", "setting": "gene RPL26", "result": 0.15}, {"measurement": "mRNA", "setting": "gene RPL27", "result": 0.05}, {"measurement": "mRNA", "setting": "gene RPL27A", "result": 0.06}, {"measurement": "mRNA", "setting": "gene RPL28", "result": 0.24}, {"measurement": "Rapamycin mRNA", "setting": "gene RPL28", "result": 0.64}, {"measurement": "mRNA", "setting": "gene RPL31", "result": "−0.02"}, {"measurement": "mRNA", "setting": "gene RPL32", "result": 0.22}, {"measurement": "mRNA", "setting": "gene RPL34", "result": 0.11}, {"measurement": "mRNA", "setting": "gene RPL36A", "result": 0.13}, {"measurement": "mRNA", "setting": "gene RPL37A", "result": 0.08}, {"measurement": "mRNA", "setting": "gene RPL39", "result": 0.17}, {"measurement": "Rapamycin mRNA", "setting": "gene RPL39", "result": 0.30}, {"measurement": "mRNA", "setting": "gene RPL41", "result": 0.04}, {"measurement": "mRNA", "setting": "gene RPLP0", "result": 0.15}, {"measurement": "mRNA", "setting": "gene RPLP1", "result": 0.28}, {"measurement": "mRNA", "setting": "gene RPLP2", "result": 0.26}, {"measurement": "mRNA", "setting": "gene RPS2", "result": 0.07}, {"measurement": "mRNA", "setting": "gene RPS3", "result": 0.22}, {"measurement": "mRNA", "setting": "gene RPS3A", "result": 0.22}, {"measurement": "mRNA", "setting": "gene RPS4X", "result": 0.18}, {"measurement": "mRNA", "setting": "gene RPS5", "result": 0.14}, {"measurement": "mRNA", "setting": "gene RPS7", "result": 0.11}, {"measurement": "mRNA", "setting": "gene RPS9", "result": 0.10}, {"measurement": "mRNA", "setting": "gene RPS12", "result": 0.11}, {"measurement": "mRNA", "setting": "gene RPS13", "result": 0.07}, {"measurement": "mRNA", "setting": "gene RPS14", "result": 0.10}, {"measurement": "mRNA", "setting": "gene RPS15", "result": "−0.01"}, {"measurement": "mRNA", "setting": "gene RPS15A", "result": 0.07}, {"measurement": "mRNA", "setting": "gene RPS19", "result": 0.15}, {"measurement": "mRNA", "setting": "gene RPS20", "result": 0.18}, {"measurement": "Rapamycin mRNA", "setting": "gene RPS20", "result": 0.14}, {"measurement": "mRNA", "setting": "gene RPS21", "result": "−0.01"}, {"measurement": "mRNA", "setting": "gene RPS25", "result": 0.04}, {"measurement": "mRNA", "setting": "gene RPS27", "result": 0.10}, {"measurement": "Rapamycin mRNA", "setting": "gene RPS27", "result": 0.07}, {"measurement": "mRNA", "setting": "gene RPS27A", "result": 0.16}, {"measurement": "mRNA", "setting": "gene RPS28", "result": 0.01}, {"measurement": "Rapamycin mRNA", "setting": "gene SDCCAG10", "result": "−0.19"}, {"measurement": "mRNA", "setting": "gene SLC19A1", "result": -0.36}, {"measurement": "mRNA", "setting": "gene TKT", "result": 0.02}, {"measurement": "mRNA", "setting": "gene TPT1", "result": 0.24}, {"measurement": "mRNA", "setting": "gene TSC2", "result": "−0.15"}, {"measurement": "mRNA", "setting": "gene UBA52", "result": 0.12}, {"measurement": "Rapamycin mRNA", "setting": "gene UBTD2", "result": 0.19}, {"measurement": "Rapamycin mRNA", "setting": "gene UCHL5", "result": "−0.08"}, {"measurement": "Rapamycin mRNA", "setting": "gene VHL", "result": "−0.23"}, {"measurement": "mRNA", "setting": "gene VIM", "result": 0.36}, {"measurement": "mRNA", "setting": "gene YB1", "result": 0.11}]}
